What was measured:
Carbonic anhydrase 2 = Carbonic anhydrase 2 (Homo sapiens, UniProt P00918); experiment: Inhibition of human carbonic anhydrase 2 preincubated for 6 hrs by CO2 hydration stopped-flow assay
Carbonic anhydrase 9 = Carbonic anhydrase 9 (Homo sapiens, UniProt Q16790); experiment: Inhibition of human carbonic anhydrase 9 preincubated for 6 hrs by CO2 hydration stopped-flow assay
Carbonic anhydrase 7 = Carbonic anhydrase 7 (Homo sapiens, UniProt P43166); experiment: Inhibition of human carbonic anhydrase 7 preincubated for 6 hrs by CO2 hydration stopped-flow assay
Carbonic anhydrase 12 = Carbonic anhydrase 12 (Homo sapiens, UniProt O43570); experiment: Inhibition of human carbonic anhydrase 12 preincubated for 6 hrs by CO2 hydration stopped-flow assay
Carbonic anhydrase 1 = Carbonic anhydrase 1 (Homo sapiens, UniProt P00915); experiment: Inhibition of human carbonic anhydrase 1 preincubated for 6 hrs by CO2 hydration stopped-flow assay
Carbonic anhydrase 13 = Carbonic anhydrase 13 (Homo sapiens, UniProt Q8N1Q1); experiment: Inhibition of human carbonic anhydrase 13 preincubated for 6 hrs by CO2 hydration stopped-flow assay
Carbonic anhydrase 13, sequence (Q8N1Q1 whole entry): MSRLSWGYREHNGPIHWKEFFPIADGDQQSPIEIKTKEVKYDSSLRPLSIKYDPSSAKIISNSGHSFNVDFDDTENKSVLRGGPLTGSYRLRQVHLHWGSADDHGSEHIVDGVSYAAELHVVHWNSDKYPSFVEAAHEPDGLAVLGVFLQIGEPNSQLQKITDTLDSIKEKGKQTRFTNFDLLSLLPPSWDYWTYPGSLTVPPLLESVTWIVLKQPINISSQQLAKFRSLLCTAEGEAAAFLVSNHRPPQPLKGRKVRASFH

Carbonic anhydrase 12, sequence (O43570 whole entry): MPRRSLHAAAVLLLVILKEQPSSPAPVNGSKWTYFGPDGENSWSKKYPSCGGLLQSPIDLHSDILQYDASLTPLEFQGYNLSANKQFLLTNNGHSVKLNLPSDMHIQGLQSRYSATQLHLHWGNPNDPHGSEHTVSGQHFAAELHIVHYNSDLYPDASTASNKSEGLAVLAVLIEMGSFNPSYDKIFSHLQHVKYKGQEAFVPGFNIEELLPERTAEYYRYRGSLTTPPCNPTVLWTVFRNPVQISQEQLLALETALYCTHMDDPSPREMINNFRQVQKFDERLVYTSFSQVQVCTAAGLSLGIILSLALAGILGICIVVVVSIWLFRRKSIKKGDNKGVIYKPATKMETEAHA
Carbonic anhydrase 7, sequence (P43166 whole entry): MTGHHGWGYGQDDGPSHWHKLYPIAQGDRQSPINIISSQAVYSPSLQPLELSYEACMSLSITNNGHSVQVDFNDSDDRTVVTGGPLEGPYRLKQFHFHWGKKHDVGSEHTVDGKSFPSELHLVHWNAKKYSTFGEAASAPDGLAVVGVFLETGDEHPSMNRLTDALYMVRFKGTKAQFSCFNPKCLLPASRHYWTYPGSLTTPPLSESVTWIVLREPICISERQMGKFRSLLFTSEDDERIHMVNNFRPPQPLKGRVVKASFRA
Carbonic anhydrase 1, sequence (P00915 whole entry): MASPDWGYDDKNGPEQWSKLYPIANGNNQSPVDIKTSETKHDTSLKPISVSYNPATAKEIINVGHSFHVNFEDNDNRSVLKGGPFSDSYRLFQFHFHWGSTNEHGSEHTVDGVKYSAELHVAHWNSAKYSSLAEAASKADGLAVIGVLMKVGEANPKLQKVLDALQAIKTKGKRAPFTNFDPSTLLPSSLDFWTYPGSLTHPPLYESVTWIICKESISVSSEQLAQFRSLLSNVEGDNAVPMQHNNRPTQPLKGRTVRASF

SMILES | Ki (Carbonic anhydrase 2) [µM] | Ki (Carbonic anhydrase 9) [µM] | Ki (Carbonic anhydrase 7) [µM] | Ki (Carbonic anhydrase 12) [µM] | Ki (Carbonic anhydrase 1) [µM] | Ki (Carbonic anhydrase 13) [µM]
C=C(C)/C=C/c1c(OC)c2c(c3ccc(=O)oc13)OC(C)(C)C=C2 | > 100 | 0.62 | – | – | – | –
COc1ccc(-c2c3n(c4c(=O)oc5cc(O)c(OC)cc5c24)CCc2c-3cc(OC)c(OC)c2O)cc1O | > 100 | 3.22 | – | – | – | –
C/C(=C\COc1ccc2ccc(=O)oc2c1)CCC(=O)C(C)(C)O | > 100 | 4.03 | – | – | – | –
CC1(C)C=Cc2cc3ccc(=O)oc3cc2O1 [XANTHYLETIN] | > 100 | 7.51 | 9.18 | 25.7 | 21.5 | 8.36
C=C(C)C(COC(=O)c1cccnc1)c1c(OC)ccc2ccc(=O)oc12 (centres undefined) | > 100 | 0.67 | > 100 | – | – | –
COc1cc2ccc(=O)oc2cc1O [SCOPOLETIN] | > 100 | 0.96 | 8.71 | 4.05 | 10.6 | 17.8
COc1ccc(-c2c3n(c4c(=O)oc5cc(OC)c(O)cc5c24)CCc2cc(OS(=O)(=O)O)c(OC)cc2-3)cc1O | > 100 | 3.27 | – | – | – | –
COc1cc2ccc(=O)oc2c(OC)c1OC [FRAXIDIN METHYL ETHER] | > 100 | 6.58 | 9.28 | 18.2 | 0.0097 | 4.24
C/C(=C\COc1ccc2ccc(=O)oc2c1)C1=CC(=O)C(C)(C)O1 [GEIPARVARIN] | > 100 | 0.6 | 7.82 | 0.83 | 9.75 | 9.62
COc1cc(OC)c2ccc(=O)oc2c1OC | 9.65 | 0.76 | – | – | – | –
COc1cc2oc(=O)ccc2cc1O [ISOSCOPOLETIN] | > 100 | 7.37 | 23.8 | 4.14 | 14 | 5.27
COc1c2c(c3ccc(=O)oc3c1/C=C/C(C)(C)O)OC(C)(C)C=C2 [AVICENNOL] | > 100 | 0.78 | 8.98 | 0.77 | 8.46 | 29.3
O=c1oc2c(O)c(O)cc3c(=O)oc4c(O)c(O)cc1c4c23 [ELLAGIC ACID] | – | 79.8 | 8.79 | 8.15 | 68.2 | 4.24
COc1cc(-c2c3c4cc(OC)c(O)cc4oc(=O)c3n3ccc4c(OC)c(OC)c(OC)cc4c23)ccc1O | > 100 | 6.33 | – | – | – | –
COc1c2c(c(OC)c3oc(=O)ccc13)OC(C)(C)C=C2 | 49.3 | 0.86 | – | – | – | > 100
COc1ccc2ccc(=O)oc2c1C(C=O)=C(C)C [MURRALONGIN] | > 100 | 8.12 | – | – | – | –
CC(CCOc1ccc2ccc(=O)oc2c1)C1=CC(=O)C(C)(C)O1 (centres undefined) | 63.4 | 0.89 | – | – | – | –
COc1cc2ccc(=O)oc2cc1O[C@@H]1O[C@H](CO)[C@@H](O)[C@H](O)[C@H]1O [SCOPOLIN] | > 100 | 8.72 | – | – | – | –
CCCc1cc(=O)oc2c3c(c4c(c12)OC(C)(C)C=C4)O[C@H](C)[C@@H](C)[C@H]3O [(+)-CALANOLIDE B] | 50.7 | – | 8.87 | 0.81 | 9.31 | 21
COc1cc2oc(=O)ccc2c2c1C=CC(C)(C)O2 [ALLOXANTHOXYLETIN] | > 100 | 3.5 | – | – | – | –
COc1cc2ccc(=O)oc2c(O[C@@H]2O[C@H](CO)[C@@H](O)[C@H](O)[C@H]2O)c1O [FRAXINE] | > 100 | 0.37 | 3.87 | 7.45 | 5.04 | 9.8
COc1cc2c(=O)oc3c(OC)c(OC)cc4c(=O)oc(c1O)c2c34 | > 100 | 17.4 | – | – | – | –
C/C(=C\Cc1cc2ccc(=O)oc2cc1O)CO | 78.9 | 9.75 | – | – | – | –
COc1c(O)ccc2ccc(=O)oc12 | > 100 | 0.85 | – | – | – | –
COc1c2c(cc3oc(=O)ccc13)OC(C)(C)C=C2 [XANTHOXYLETIN] | > 100 | 0.74 | 6.27 | 0.96 | 7.71 | 3.15
O=c1ccc2ccccc2o1 [COUMARIN] | – | – | > 1000 | – | – | > 1000
COc1cc2ccc(=O)oc2c(O)c1OC | > 100 | 0.85 | – | – | – | –

Reference: ChEMBL document CHEMBL2331395, “Natural product coumarins that inhibit human carbonic anhydrases” (Bioorg Med Chem, 2013)
